The record followed here is US20260062422A1 (Halda Therapeutics OpCo, Inc., priority 2022, published 2026).

One test deals with VCaP cells. The experiment in a line: Cellular growth inhibition assay for VCaP cells, CellTiter-Glo. As to conditions: Homo sapiens, VCaP, 72 h, 72 hours treatment, CellTiter-Glo 2.0. The test is classed as cell-based, human. Put shortly:
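GI50 values come from four-parameter curve fits of luminescence data normalized to a zero baseline. Compound, in medium with 0.5% DMSO, was added one day after plating and left for 72 h before CellTiter-Glo 2.0 addition.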

The test system of another test is T47D cells. Nature of the test: Cellular growth inhibition assay for T47D cells, CellTiter-Glo. In kind it is cell-based, human. Particulars: Homo sapiens, T47D, 72 h, 72 hours treatment, CellTiter-Glo 2.0 cell viability. Put shortly: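 Luminescence from CellTiter-Glo 2.0 after 72 h of compound exposure gives the viability signal. Cells grew in insulin-supplemented (0.2 units/mL) DMEM with 10% FBS and were treated one day after seeding at 0.5% DMSO. GI50 values come from four-parameter nonlinear regression.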

The target in test [1] is T1, progesterone receptor ligand binding domain (LBD) (Homo sapiens, UniProt P06401).
T1 construct: GST-tagged PR LBD, Fluormone tracer, and compound were mixed; purchased Life Technologies A15905 or a15906
T1 sequence (P06401 679-913 limits assumed): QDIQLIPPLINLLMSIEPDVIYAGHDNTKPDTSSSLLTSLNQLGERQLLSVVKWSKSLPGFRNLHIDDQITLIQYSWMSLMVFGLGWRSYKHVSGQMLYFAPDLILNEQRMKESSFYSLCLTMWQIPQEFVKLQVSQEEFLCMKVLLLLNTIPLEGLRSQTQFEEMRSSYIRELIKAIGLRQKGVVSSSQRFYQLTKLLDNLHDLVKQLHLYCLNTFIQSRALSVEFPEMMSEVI
The experiment in a line: FP assay (PolarScreen Progesterone Receptor Competitor Assay) for binding to progesterone receptor LBD. As to conditions: GST-tagged PR LBD, Fluormone tracer, fluorescence polarization, 2 hours; Table 17. On the procedure:
Compounds were tested using the PolarScreen™ Progesterone Receptor Competitor Assay Kit (Life Technologies Cat #A15905 or a15906), as per the manufacturer's instructions. Briefly, GST-tagged PR LBD, Fluormone tracer, and compound were mixed and incubated for 2 hours at room temperature in the dark. Following incubation, the plates were spun at 3000×g for 30 seconds, then sealed with an optical adhesive cover, and fluorescence polarization was measured using appropriate excitation and emission filters with an EnVision Plate Reader (Perkin Elmer). Compound concentration vs. mP value were plotted in Prism (GraphPad). A four-parameter non-linear regression curve fit was applied to dose-response data to determine the half-maximal inhibitory concentration (IC50) for each test compound.

Structures are written as SMILES. Some results are limits rather than exact numbers.

`Cc1sc2c(c1C)C(c1ccc(CCCOC3CCN(c4ncc5c(n4)CN([C@H]4C(C)(C)[C@H](Oc6ccc(C#N)c(Cl)c6)C4(C)C)C5=O)CC3)cc1)=NC(Cc1ncco1)c1nnc(C)n1-2` (stereo partly drawn) [Compound I-134]: the GI50 in the test on VCaP cells is below 500 nM; in the test with T47D cells, 500 to 1500 nM. In addition, the IC50 in test [1] was in the range of 50 to 500 nM.
